From ChEMBL document CHEMBL1135518 (J Med Chem, 2002) come the findings set out here.

For orientation: Ki means a dissociation constant, usually derived from enzyme kinetics or from competition with a known ligand. High values mean weaker binding, low ones tighter binding. The IC50 is the point on the concentration scale where inhibition reaches its midpoint. A lower IC50 goes with inhibition by little substance.

In test [1] the target is T1, 5-hydroxytryptamine receptor 1A (Homo sapiens, UniProt P08908).
T1 sequence (P08908 whole entry): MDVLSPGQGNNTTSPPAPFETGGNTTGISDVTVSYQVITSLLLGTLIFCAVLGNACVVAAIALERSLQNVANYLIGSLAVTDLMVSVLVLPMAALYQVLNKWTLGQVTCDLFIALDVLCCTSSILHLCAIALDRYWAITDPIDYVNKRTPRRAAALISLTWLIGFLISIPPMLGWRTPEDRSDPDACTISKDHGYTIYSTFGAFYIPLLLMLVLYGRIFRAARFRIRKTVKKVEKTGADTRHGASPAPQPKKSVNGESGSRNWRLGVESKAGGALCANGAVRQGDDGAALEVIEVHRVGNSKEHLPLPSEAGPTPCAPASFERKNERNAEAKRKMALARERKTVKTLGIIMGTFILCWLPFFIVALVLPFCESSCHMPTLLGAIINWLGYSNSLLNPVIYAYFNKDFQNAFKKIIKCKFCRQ
The experiment in a line: The binding affinity at the 5-hydroxytryptamine 1A receptor determined using [3H]5-CT.

In a further test the target is T2, D(4) dopamine receptor (Homo sapiens, UniProt P21917).
T2 sequence (P21917 whole entry): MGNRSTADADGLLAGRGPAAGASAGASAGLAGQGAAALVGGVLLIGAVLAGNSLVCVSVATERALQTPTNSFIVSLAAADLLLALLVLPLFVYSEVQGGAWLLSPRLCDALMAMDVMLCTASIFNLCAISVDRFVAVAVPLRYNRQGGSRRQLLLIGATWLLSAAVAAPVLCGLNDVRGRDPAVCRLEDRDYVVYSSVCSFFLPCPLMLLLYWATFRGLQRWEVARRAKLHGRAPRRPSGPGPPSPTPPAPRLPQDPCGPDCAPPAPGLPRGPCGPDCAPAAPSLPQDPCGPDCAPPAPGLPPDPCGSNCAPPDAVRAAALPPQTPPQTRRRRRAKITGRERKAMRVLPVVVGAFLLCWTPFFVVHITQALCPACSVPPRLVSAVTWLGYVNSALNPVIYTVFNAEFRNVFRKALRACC
As to the kind of experiment: The binding affinity at the Dopamine receptor D4 determined using [3H]YM-09151-2.

Another test has as its target D(2) dopamine receptor (Rattus norvegicus, UniProt P61169). As to the kind of experiment: The binding affinity at the Dopamine receptor D2 determined using [3H]spiperone.
In test [2] the target is T3, Adrenergic receptor alpha-1 (Rattus norvegicus, UniProt P15823+P23944+P43140).
T3 sequence (P15823 whole entry): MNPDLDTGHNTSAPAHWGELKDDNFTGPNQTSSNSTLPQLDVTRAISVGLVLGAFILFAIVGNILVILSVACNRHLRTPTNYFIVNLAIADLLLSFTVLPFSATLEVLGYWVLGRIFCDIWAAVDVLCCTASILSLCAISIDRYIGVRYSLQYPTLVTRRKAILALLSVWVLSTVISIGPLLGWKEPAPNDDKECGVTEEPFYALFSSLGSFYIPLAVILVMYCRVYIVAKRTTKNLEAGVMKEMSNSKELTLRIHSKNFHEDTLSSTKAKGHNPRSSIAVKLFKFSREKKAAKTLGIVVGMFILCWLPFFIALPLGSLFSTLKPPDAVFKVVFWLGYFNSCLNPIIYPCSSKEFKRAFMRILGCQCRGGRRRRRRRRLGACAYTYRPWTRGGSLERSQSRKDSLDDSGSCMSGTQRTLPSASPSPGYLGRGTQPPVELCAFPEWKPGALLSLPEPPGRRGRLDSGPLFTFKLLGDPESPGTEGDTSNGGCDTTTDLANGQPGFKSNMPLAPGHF
T3 sequence (P23944 whole entry): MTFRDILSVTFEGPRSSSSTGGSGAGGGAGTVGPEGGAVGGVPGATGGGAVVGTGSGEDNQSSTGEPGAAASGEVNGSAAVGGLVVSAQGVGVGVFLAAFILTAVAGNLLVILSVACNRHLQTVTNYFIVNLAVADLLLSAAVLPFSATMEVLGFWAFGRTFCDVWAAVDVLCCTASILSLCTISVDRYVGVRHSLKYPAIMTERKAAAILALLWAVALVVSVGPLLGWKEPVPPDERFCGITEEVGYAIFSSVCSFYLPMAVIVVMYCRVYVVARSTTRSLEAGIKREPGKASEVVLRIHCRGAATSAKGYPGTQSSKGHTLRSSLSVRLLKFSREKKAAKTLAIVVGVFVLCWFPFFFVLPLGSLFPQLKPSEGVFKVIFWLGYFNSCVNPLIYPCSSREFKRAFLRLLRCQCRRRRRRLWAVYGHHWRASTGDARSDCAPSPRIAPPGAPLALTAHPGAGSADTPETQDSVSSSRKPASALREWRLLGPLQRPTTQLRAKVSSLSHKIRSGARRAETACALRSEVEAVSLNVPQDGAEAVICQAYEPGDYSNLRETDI
T3 sequence (P43140 whole entry): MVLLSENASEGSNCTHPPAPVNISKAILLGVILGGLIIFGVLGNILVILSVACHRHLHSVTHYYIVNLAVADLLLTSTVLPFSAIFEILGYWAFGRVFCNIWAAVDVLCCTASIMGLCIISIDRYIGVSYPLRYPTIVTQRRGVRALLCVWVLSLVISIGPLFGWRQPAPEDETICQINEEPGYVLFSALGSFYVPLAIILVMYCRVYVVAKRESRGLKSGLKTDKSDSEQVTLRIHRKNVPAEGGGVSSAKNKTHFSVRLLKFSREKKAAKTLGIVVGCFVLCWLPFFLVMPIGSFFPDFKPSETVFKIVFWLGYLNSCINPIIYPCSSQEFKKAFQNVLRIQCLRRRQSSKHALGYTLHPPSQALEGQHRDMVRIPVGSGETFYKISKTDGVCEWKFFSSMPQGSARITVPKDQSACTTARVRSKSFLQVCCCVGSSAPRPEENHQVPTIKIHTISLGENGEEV
As to the kind of experiment: The binding affinity at Alpha-1 adrenergic receptor determined using [3H]prazosin. Type of test: protein assay.

Test [3] addresses 5-hydroxytryptamine receptor 2A (Rattus norvegicus, UniProt P14842). As to the kind of experiment: The binding affinity at 5-hydroxytryptamine 2A receptor was determined using [3H]ketanserin.
Test [4] has as its target Norepinephrine transporter (Rattus norvegicus, UniProt Q9WTR4). As to the kind of experiment: The binding affinity at the Norepinephrine transporter reuptake sites determined using competition binding assay.
Another test deals with D(3) dopamine receptor (Homo sapiens, UniProt P35462). The experiment in a line: The binding affinity at the Dopamine receptor D3 determined using [3H]spiperone.
The target in test [5] is Sodium-dependent serotonin transporter (Rattus norvegicus, UniProt P31652). As to the kind of experiment: The binding affinity at the 5-HT reuptake sites determined using competition binding assay.

A value given as a limit tells only on which side of the number the result lay.

D(2) dopamine receptor, sequence (P61169 whole entry): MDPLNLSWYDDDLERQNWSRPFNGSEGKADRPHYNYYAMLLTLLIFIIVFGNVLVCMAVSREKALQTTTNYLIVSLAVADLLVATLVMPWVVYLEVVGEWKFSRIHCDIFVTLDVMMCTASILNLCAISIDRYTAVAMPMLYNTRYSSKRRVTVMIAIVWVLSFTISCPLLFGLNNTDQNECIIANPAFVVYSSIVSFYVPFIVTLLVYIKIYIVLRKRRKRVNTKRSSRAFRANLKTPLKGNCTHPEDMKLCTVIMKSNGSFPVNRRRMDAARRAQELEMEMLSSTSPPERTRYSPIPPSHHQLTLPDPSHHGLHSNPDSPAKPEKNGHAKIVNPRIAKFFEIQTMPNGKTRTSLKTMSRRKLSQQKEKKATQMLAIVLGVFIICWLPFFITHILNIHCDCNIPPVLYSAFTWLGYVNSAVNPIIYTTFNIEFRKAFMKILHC
Sodium-dependent serotonin transporter, sequence (P31652 whole entry): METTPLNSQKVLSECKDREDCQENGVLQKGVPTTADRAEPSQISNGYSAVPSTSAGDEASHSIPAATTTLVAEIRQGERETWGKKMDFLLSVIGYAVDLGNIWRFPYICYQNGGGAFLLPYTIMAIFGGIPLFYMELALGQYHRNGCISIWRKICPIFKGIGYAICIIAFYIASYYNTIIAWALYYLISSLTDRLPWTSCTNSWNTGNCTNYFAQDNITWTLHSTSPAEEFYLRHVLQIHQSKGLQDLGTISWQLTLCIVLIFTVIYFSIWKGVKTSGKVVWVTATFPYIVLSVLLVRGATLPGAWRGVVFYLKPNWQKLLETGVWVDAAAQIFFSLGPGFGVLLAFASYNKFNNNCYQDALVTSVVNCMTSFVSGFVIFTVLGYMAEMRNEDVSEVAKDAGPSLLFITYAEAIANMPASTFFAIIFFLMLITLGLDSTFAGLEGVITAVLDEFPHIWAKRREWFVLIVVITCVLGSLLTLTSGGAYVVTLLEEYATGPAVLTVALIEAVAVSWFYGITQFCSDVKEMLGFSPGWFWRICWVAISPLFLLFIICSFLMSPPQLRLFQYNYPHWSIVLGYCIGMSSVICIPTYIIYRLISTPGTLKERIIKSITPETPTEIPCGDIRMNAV
5-hydroxytryptamine receptor 2A, sequence (P14842 whole entry): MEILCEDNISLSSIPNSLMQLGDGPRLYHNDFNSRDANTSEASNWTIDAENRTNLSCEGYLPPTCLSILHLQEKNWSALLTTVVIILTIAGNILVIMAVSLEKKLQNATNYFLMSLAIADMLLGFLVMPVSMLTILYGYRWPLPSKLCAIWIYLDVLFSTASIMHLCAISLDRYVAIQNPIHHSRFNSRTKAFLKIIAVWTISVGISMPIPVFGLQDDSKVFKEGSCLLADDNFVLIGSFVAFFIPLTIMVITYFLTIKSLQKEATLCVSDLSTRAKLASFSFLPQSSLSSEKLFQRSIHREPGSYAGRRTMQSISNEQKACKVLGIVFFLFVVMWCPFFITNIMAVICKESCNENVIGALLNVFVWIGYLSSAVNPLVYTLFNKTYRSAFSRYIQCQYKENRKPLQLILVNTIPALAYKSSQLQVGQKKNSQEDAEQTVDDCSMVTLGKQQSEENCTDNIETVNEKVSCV
Norepinephrine transporter, sequence (Q9WTR4 whole entry): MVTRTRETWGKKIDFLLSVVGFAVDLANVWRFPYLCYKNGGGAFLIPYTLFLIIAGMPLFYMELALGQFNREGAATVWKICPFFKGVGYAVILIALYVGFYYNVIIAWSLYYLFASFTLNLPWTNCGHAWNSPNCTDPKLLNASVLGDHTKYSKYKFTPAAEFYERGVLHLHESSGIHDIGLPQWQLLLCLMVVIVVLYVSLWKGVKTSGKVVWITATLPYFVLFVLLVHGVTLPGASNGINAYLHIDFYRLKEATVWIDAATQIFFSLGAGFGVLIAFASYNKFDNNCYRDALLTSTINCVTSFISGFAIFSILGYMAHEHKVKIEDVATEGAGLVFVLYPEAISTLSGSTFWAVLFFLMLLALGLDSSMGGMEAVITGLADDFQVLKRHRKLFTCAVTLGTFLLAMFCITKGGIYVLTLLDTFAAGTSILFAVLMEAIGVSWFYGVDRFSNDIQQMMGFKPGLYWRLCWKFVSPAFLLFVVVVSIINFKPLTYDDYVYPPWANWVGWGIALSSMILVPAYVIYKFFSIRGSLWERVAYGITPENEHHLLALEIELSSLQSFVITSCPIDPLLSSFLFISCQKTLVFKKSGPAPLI
D(3) dopamine receptor, sequence (P35462 whole entry): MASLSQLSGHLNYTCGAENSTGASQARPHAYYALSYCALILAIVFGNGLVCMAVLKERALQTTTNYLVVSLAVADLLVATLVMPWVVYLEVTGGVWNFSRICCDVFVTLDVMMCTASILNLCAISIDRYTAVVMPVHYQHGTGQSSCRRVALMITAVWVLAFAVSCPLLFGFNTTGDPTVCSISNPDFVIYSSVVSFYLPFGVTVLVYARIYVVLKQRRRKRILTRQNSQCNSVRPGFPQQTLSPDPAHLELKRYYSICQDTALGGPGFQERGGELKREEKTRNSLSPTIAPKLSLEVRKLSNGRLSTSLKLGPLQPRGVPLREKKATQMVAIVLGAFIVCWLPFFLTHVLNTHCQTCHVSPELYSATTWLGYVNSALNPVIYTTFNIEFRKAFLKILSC

Consider `COc1cccc2c1N1CCN(C)C[C@@H]1c1ccccc1C2`, for which the Ki came to 800 nM in test [1]; 160 nM at D(4) dopamine receptor; 460 nM on D(2) dopamine receptor; 205 nM in test [2]; 3570 nM at D(3) dopamine receptor. Also, the results for the IC50 in test [3], in test [4] and in test [5] were 0.55 nM, 1240 nM and 1650 nM, respectively.
Consider `COc1cccc2c1N1CCN(C)C[C@H]1c1ccccc1C2`, for which the Ki in test [1] is 255 nM; on D(4) dopamine receptor it was 47 nM; at D(2) dopamine receptor, 20 nM; in test [2], 74 nM; on D(3) dopamine receptor, 100 nM. Moreover, the figures for the IC50 in test [3], in test [4] and in test [5] were 0.75 nM, 2860 nM and above 10000 nM, respectively.
In the case of `COc1cccc2c1N1CCN(C)CC1c1ccccc1C2` (racemic), the Ki in test [1] was 345 nM; at D(4) dopamine receptor it was 92 nM; at D(2) dopamine receptor it was 28 nM; in test [2], 84 nM; at D(3) dopamine receptor, 260 nM. Further, the IC50 came to 0.7 nM in test [3], 1780 nM in test [4] and 2900 nM in test [5].
